Source: patent US20260183274A1, “PDK1 REGULATORY COMPOUND AND COMPOSITION CONTAINING THE SAME” (PROVIBIO CO., LTD., priority 2024, published 2026)

Assays:
[1] = system: T cells isolated from mouse spleens; test: T cell proliferation inhibition (CFSE flow cytometry, anti-CD3/anti-CD28 stimulation); format: cell-based; conditions: mouse spleen T cells, 3 days; for inhibition at 0.01 µM / inhibition at 0.1 µM / inhibition at 1 µM / inhibition at 10 µM / inhibition at 30 µM / inhibition at 50 µM: Mus musculus, T-cell, 72 h, read-out: Proliferation inhibition rate (%)
How it was run: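 Proliferation inhibition (%) came from flow cytometry of CFSE dilution after 3 days' culture at 37 °C with compound (10 nM, 100 nM, 1, 10, 30, 50 μM; triplicate wells). Cells were magnetically purified T cells from C57BL/6 mouse spleens, 2×10^5 per well, stimulated with 0.5 μg/mL each anti-CD3 and anti-CD28.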

[2] = system: Human B Lymphocyte cell line, SU-DHL-8; test: Relative cell viability CCK-8, SU-DHL-8; format: cell-based; conditions: for viability at 1 µM / viability at 10 µM / viability at 30 µM / viability at 50 µM: Homo sapiens, SU-DHL-8, 48 h; for viability at 1 µM: read-out: Relative cell viability (%), SU-DHL-8, 1 μM; for viability at 10 µM: read-out: Relative cell viability (%), SU-DHL-8, 10 μM; for viability at 30 µM: read-out: Relative cell viability (%), SU-DHL-8, 30 μM; for viability at 50 µM: read-out: Relative cell viability (%), SU-DHL-8, 50 μM
Procedure: Human-derived B lymphoma cell line SU-DHL-8 (Cat. #CRL-2961) purchased from ATCC was cultured in RPMI-1640 medium containing 10% FBS, 100 U/mL penicillin, and 100 μg/mL streptomycin.
The cell culture medium was then harvested, centrifuged at 1,300 rpm for 5 minutes, and the supernatant was removed. The cells were resuspended in the same medium and dispensed into a 96-well plate (Costar 96-well cell culture plate, Corning) at 90 μL per well, resulting in the conditions specified in Table 5.
Then, 10 μL of CCK-8 was added to each well, and the plates were incubated again at 37° C. in a 5% CO2 incubator for 4 hours.
In other words, when the survival rate of untreated cells (DMSO) is set at 100%, the relative cell survival rate in each group treated with the drug at different concentrations is indicated.

[3] = 1 μM, 48 hours, untreated (DMSO) = 100%
[4] = 10 μM, 48 hours, untreated (DMSO) = 100%
[5] = 30 μM, 48 hours, untreated (DMSO) = 100%
[6] = 50 μM, 48 hours, untreated (DMSO) = 100%
[7] = 48 hours, untreated (DMSO) = 100%

Row | SMILES | Proliferation inhibition rate (%) ([1]; compound 10 nM) | Proliferation inhibition rate (%) ([1]; compound 100 nM) | Proliferation inhibition rate (%) ([1]; compound 1 μM) | Proliferation inhibition rate (%) ([1]; compound 10 μM) | Proliferation inhibition rate (%) ([1]; compound 30 μM) | Proliferation inhibition rate (%) ([1]; compound 50 μM) | Relative cell viability (%), SU-DHL-8 [2, 3] [%] | Relative cell viability (%), SU-DHL-8 [2, 4] [%] | Relative cell viability (%), SU-DHL-8 [2, 5] [%] | Relative cell viability (%), SU-DHL-8 [2, 6] [%] | inhibition at 0.01 µM ([1]; compound 10 nM) [%] | inhibition at 0.1 µM ([1]; compound 100 nM) [%] | inhibition at 1 µM ([1]; compound 1 μM) [%] | inhibition at 10 µM ([1]; compound 10 μM) [%] | inhibition at 30 µM ([1]; compound 30 μM) [%] | inhibition at 50 µM ([1]; compound 50 μM) [%] | viability at 1 µM [2, 7] [%] | viability at 10 µM [2, 7] [%] | viability at 30 µM [2, 7] [%] | other results
1 | CC1CCN(CCCCCCCCCCCCNC(=O)c2cccnc2N)C1 (stereo not drawn) [Compound 24, 2-Amino-N-(12-(3-methylpyrrolidin-1-yl)dodecyl) nicotinamide] | −7.33 | 100.00 | 100.00 | 100.00 | 100.00 | 100.00 | 8.38 | 1.65 | 0.62 | – | – | – | – | – | – | – | – | – | – | –
2 | Nc1ncccc1C(=O)NCCCCCCCCCCCCN1CCS(=O)(=O)CC1 [Compound 25, 2-Amino-N-(12-(1,1-dioxidothiomorpholino)dodecyl) nicotinamide] | −2.67 | 89.43 | 100.00 | 100.00 | 100.00 | 100.00 | 9.73 | 1.26 | 0.11 | 0.95 | – | – | – | – | – | – | – | – | – | –
3 | Nc1ncccc1C(=O)NCCCCCCCCCCCCN1CCC(F)C1 (stereo not drawn) [Compound 26, 2-Amino-N-(12-(3-fluoropyrrolidin-1-yl)dodecyl) nicotinamide] | 2.13 | 100.00 | 100.00 | 100.00 | 100.00 | 100.00 | 1.70 | 1.04 | 0.05 | – | – | – | – | – | – | – | – | – | – | –
4 | Nc1ncccc1C(=O)NCCCCCCCCCCCCN1CCN(Cc2ccc(F)cc2)CC1 [Compound 27, 2-Amino-N-(12-(4-(4-fluorobenzyl)piperazin-1-yl)dodecyl)nicotinamide] | – | – | – | – | – | – | – | – | – | – | 2.27 | 83.3 | 100 | 100 | 100 | 100 | 6.24 | 4.97 | 2.03 | viability at 50 µM [2, 7]: 0.56%
5 | COc1ccc(CN2CCN(CCCCCCCCCCCCNC(=O)c3cccnc3N)CC2)cc1 [Compound 28, 2-Amino-N-(12-(4-(4-methoxybenzyl)piperazin-1-yl)dodecyl)nicotinamide] | – | – | – | – | – | – | – | – | – | – | -0.27 | 100 | 100 | 100 | 100 | 100 | 5.46 | 2.82 | 0.33 | Relative cell viability (%), SU-DHL-8 ([2]; human, 48 h, 50 µM): −1.55%
6 | CC1C2CCCN2CCN1CCCCCCCCCCCCNC(=O)c1cccnc1N (stereo not drawn) [Compound 29, 2-Amino-N-(12-(1-methylhexahydropyrrolo[1,2-a]pyrazin-2 (1H)-yl)dodecyl)nicotinamide] | – | – | – | – | – | – | – | – | – | – | 4.15 | 100 | 100 | 100 | 100 | 100 | 3.85 | 1.86 | 1.25 | viability at 50 µM [2, 7]: 1.03%
7 | CC1CN(C(=O)OC(C)(C)C)C(C)CN1CCCCCCCCCCCCNC(=O)c1cccnc1N (stereo not drawn) [Compound 30, tert-Butyl 4-(12-(2-aminonicotinamido)dodecyl)-2,5-dimethylpiperazine-1-carboxylate] | – | – | – | – | – | – | – | – | – | – | 1.34 | 100 | 100 | 100 | 100 | 100 | 7.9 | 2.6 | 1.86 | viability at 50 µM [2, 7]: 1.06%
8 | COC1CCN(CCCCCCCCCCCCNC(=O)c2cccnc2N)C1 (stereo not drawn) [Compound 32, 2-Amino-N-(12-(3-methoxypyrrolidin-1-yl)dodecyl) nicotinamide] | – | – | – | – | – | – | – | – | – | – | – | – | – | – | – | – | – | – | – | Proliferation inhibition rate (%) ([1]; compound 10 nM, listed as PBK-2024-024, 0.01 µM): 0.29%; Relative cell viability (%), SU-DHL-8 ([2]; 1 μM, 48 hours, untreated (DMSO) = 100%, listed as PBK-2024-024, 1 µM): 3.48%; Relative cell viability (%), SU-DHL-8 ([2]; 10 μM, 48 hours, untreated (DMSO) = 100%, listed as PBK-2024-024, 10 µM): 3.01%; Relative cell viability (%), SU-DHL-8 ([2]; 30 μM, 48 hours, untreated (DMSO) = 100%, listed as PBK-2024-024, 30 µM): 1.97%; Relative cell viability (%), SU-DHL-8 ([2]; 50 μM, 48 hours, untreated (DMSO) = 100%, listed as PBK-2024-024, 50 µM): 1.45%
9 | CN(C)CCN1CCN(CCCCCCCCCCCCNC(=O)c2cccnc2N)CC1 [Compound 33, 2-Amino-N-(12-(4-(2-(dimethylamino)ethyl)piperazin-1-yl)dodecyl)nicotinamide] | – | – | – | – | – | – | – | – | – | – | -36 | 100 | 100 | 100 | 100 | 100 | 10.1 | 4.32 | 3.35 | viability at 50 µM [2, 7]: 2.66%
10 | CC1CNCCN1CCCCCCCCCCCCNC(=O)c1cccnc1N (stereo not drawn) [Compound 35, 2-Amino-N-(12-(2-methylpiperazin-1-yl)dodecyl) nicotinamide] | 8.33 | 100.00 | 100.00 | 100.00 | 100.00 | 100.00 | 1.18 | 0.64 | 0.42 | – | – | – | – | – | – | – | – | – | – | –
11 | C[C@H]1CNCCN1CCCCCCCCCCCCNC(=O)c1cccnc1N.Cl [Compound 37, (S)-2-Amino-N-(12-(2-methylpiperazin-1-yl)dodecyl) nicotinamide hydrochloride] | −4.14 | 33.33 | 100.00 | 100.00 | 100.00 | 100.00 | 6.38 | 4.45 | 3.17 | 2.32 | – | – | – | – | – | – | – | – | – | –
12 | Nc1ncccc1C(=O)NCCCCCCCCCCCCN1CCC(Oc2ccncc2)CC1 [Compound 38, 2-Amino-N-(12-(4-(pyridin-4-yloxy)piperidin-1-yl)dodecyl) nicotinamide] | −33.51 | 100.00 | 100.00 | 100.00 | 100.00 | 100.00 | 4.16 | 3.30 | 1.79 | 1.42 | – | – | – | – | – | – | – | – | – | –
13 | CC1CCCN(CCCCCCCCCCCCNC(=O)c2cccnc2N)CC1 (stereo not drawn) [Compound 39, 2-Amino-N-(12-(4-methylazepan-1-yl)dodecyl) nicotinamide] | −58.92 | 100.00 | 100.00 | 100.00 | 100.00 | 100.00 | 11.48 | 8.41 | 6.24 | 4.27 | – | – | – | – | – | – | – | – | – | –
14 | CC1CN(C)C(CCCCCCCCCCCCNc2ccc3cncnc3n2)N1 (stereo not drawn) [Compound 43] | −10.80 | 100.00 | 100.00 | 100.00 | 100.00 | 100.00 | 22.61 | 11.93 | 2.34 | 1.58 | – | – | – | – | – | – | – | – | – | –
